Test results from ChEMBL document CHEMBL1955772, “Cytotoxic terpenoids from Juglans sinensis leaves and twigs” (Bioorg Med Chem Lett, 2012).

Tests used:
HEp-2 = test: Cytotoxicity against human Hep2 cells after 24 hrs by MTS assay; type: functional, cell-based; conditions: HEp-2, 24 h
MCF7 = test: Cytotoxicity against human MCF7 cells after 24 hrs by MTS assay; type: functional, cell-based; conditions: MCF7, 24 h
B16-F10 = test: Cytotoxicity against mouse B16F10 cells after 24 hrs by MTS assay; type: functional, cell-based; conditions: B16-F10, 24 h
[1] = Cytotoxicity against human U87MG cells after 24 hrs by MTS assay; type: functional, cell-based, U-87MG ATCC; conditions: U-87 MG

Compound	IC50 (HEp-2)	IC50 (MCF7)	IC50 (B16-F10)	IC50 [1]
C[C@H]1[C@H](C)CC[C@]2(C(=O)O[C@@H]3O[C@H](CO)[C@@H](O)[C@H](O)[C@H]3O)CC[C@]3(C)C(=CC[C@@H]4[C@@]5(C)C[C@@H](O)[C@@H](O)[C@@](C)(CO)[C@@H]5CC[C@]43C)[C@H]12	> 10 µM	> 10 µM	> 10 µM	> 10 µM
CC(C)(O[C@@H]1O[C@H](CO)[C@@H](O)[C@H](O)[C@H]1O)[C@@H]1CC[C@@]2(C)CCC=C(CO)[C@@H]2C1	> 10 µM	> 10 µM	> 10 µM	> 10 µM
CC(C)(O)[C@@H]1C[C@H]2[C@@](C)(C[C@@H]3C[C@@]32C)C[C@@H]1O	4.22 µM	1.81 µM	> 10 µM	1.13 µM
CC(C)(O)[C@@H]1C[C@H]2[C@](C)(CC1=O)C[C@@H]1C[C@@]12C	5.25 µM	4.11 µM	0.3 µM	1.16 µM
CO[C@@H]1O[C@@]2(CO)CC[C@@]13CC[C@]1(C)[C@H](C[C@@H](O)[C@@H]4[C@@]5(C)CC[C@H](O)[C@](C)(CO)[C@@H]5CC[C@]41C)[C@@H]3[C@]2(C)O (relative stereo)	5.52 µM	1.25 µM	1.53 µM	3.29 µM
CC1(C)C=C2[C@H]3CC[C@@H]4[C@@]5(C)[C@@H](O)C[C@H](O)C(C)(C)[C@@H]5CC[C@@]4(C)[C@]3(C)CC[C@@]2(C)CC1 (relative stereo)	5.4 µM	3.86 µM	0.3 µM	1.31 µM
CC(C)(O)[C@@H]1C[C@H]2[C@@](C)(C[C@@H]3C[C@@]32C)C[C@H]1O (relative stereo)	> 10 µM	> 10 µM	> 10 µM	> 10 µM
